Measurements from patent US5853463A, “Marine antifouling agent” (Rohm and Haas Company, priority 1998, dated 1998).
≈ marks a conversion by molar mass, not a printed value. Where two headings read alike, the source gives them in different places.

Assays:
Dunaliella parva = experiment: Activity against Dunaliella parva (minimum inhibitory concentration, twofold serial dilution); type: cell-based; conditions: 168 h, read-out: MIC (Minimum Inhibitory Concentration)
Method: Tests were conducted to determine the toxicity of the marine antifouling agents of the present invention to Dunaliella. Dunaliella are indicative of soft fouling organisms.
The effectiveness of the marine antifouling agents of the present invention and 3-iodopropargyl N-butyl carbamate (Comparative) against Dunaliella parva were determined by a twofold serial dilution procedure which determined the Minimum Inhibitory Concentration ("MIC") of test compound required to inhibit the growth of an algal inoculum. […]
Cultures were grown in 50 mL of medium contained in 250 mL baffle flasks with silicone sponge closures (Bellco Glass, Vineland, N.J., #2004-00004, 28 mm), on a rotary shaker under constant cool white illumination. […] The culture was standardized to an absorbance of 0.1 at 490 nm by addition of fresh medium. […]
Solutions of test compound at 40x the highest concentration to be tested were prepared in an appropriate solvent. […] At the end of that time, the plates were examined for growth, as evidenced by easily visible green color, using a mirrored microplate reader.
Results were recorded as the median of the three replicate results and are reported below as the minimum concentration to inhibit growth (MIC).

Artemia = experiment: Toxicity to Artemia (LC100 of nauplii); type: in vivo, Artemia satlina; conditions: 24 Hours, 25° C.
Method: Tests were conducted to determine the toxicity of the marine antifouling agents of the present invention to Artemia. Artemia are indicative of hard fouling organisms.
Substitute ocean water was prepared following ASTM Method D 1141-90. The water was sterilized by filtration through a 0.22 micron cellulose acetate membrane filter. San Francisco Bay Brand® (San Francisco Bay Brand, Inc., Newark, Calif.) Artemia satlina cysts were purchased from a local aquarium supply store. The cysts were hatched in a 250 mL Erlenmeyer flask. The Artemia cysts (0.2 g) were weighed into a sterilized flask. One hundred mL of sterile ASTM sea water was added to the flask. The flask was placed on an orbital shaker set at approximately 150 rotations per minute and 28° C. After 24 hours, the contents of the flask were poured into a separatory funnel. The egg shells were separated from the Artemia nauplii (larvae), as the shells floated to the top. The nauplii were returned to the flask for another 24 hours shaking. The inoculum was prepared by pouring the nauplii into a crystallizing dish 48 hours after the cysts were originally placed on the shaker. […] The number of nauplii in 3 to 4 wells was counted under a microscope. […]
Plates were read under a low magnification microscope 24 and 48 hours after the nauplii were added to the plate. […]

In the case of `O=C(C(=O)c1ccccc1)c1ccccc1` [R=R^1 =H], the MIC (Dunaliella parva) is reported as 0.6 µg/mL (≈ 2.85 µM) and the “Artemia LC100 (highest dilution in which all of the nauplii are dead)” value (Artemia) is reported as 12.5 ppm.
`CCCCNC(=O)OCC#CI` [Comparative, 3-iodopropargyl N-butyl carbamate] was tested, and the MIC (Dunaliella parva; 23° C., one week incubation, median of three replicates) was 6.2 µg/mL (≈ 22.1 µM) and the “Artemia LC100 (highest dilution in which all of the nauplii are dead)” value (Artemia) was 25 ppm.
